# Biological target: T1, MMP-13 (Homo sapiens, UniProt P45452)
# T1 construct: purchased GenzymeTechne
# Experiment: MMP-13 inhibitory activity (fluorogenic peptide substrate enzyme assay)
# Format: biochemical
# Details: compound 1 μM; substrate Cy3-PLGLK(Cy5Q)AR-NH2; 37° C., 40 min
# Procedure: To 10 μg of MMP-13 precursor (GenzymeTechne) was added 1 ml of assay buffer (50 mM Tris-HCl (pH 7.5), 10 mM CaCl2, 150 mM NaCl, 0.05% Brij-35), and 4-aminophenylmercuric acid (Sigma) was added to the final concentration of 1 mM. The MMP-13 precursor was activated by incubating at 37° C. for 2 hrs.
# In a 96 well black plate (Corning), to 6.3 ng/ml of MMP-13 solution (49 μl) diluted with assay buffer was added the test compound (1 μl) diluted with dimethyl sulfoxide (DMSO) and 620 nM Cy3-PLGLK(Cy5Q)AR—NH2 (50 μl, synthesized by Amersham Biosciences) in assay buffer was added to start the enzyme reaction. After incubation at 37° C. for 40 min, 500 mM EDTA solution (6 μl) was added to stop the reaction. For measurement, Farcyte (Amersham Biosciences) was used to measure at excitation wavelength 535 nm and measurement wavelength 595 nm.
# T: value of well with addition of DMSO instead of test compound
# C: value of well with addition of DMSO instead of test compound and addition of EDTA solution before addition of substrate solution
# X: value of well with addition of test compound
row,SMILES,MMP-13 activity inhibitory rate (%)
1,"COc1cccc(CNC(=O)c2nc3scc(COCc4ccc(C(=O)[O-])cc4)c3c(=O)[n-]2)c1.[Na+].[Na+] [Example 384, Disodium 4-{[({2-[({[3-(methyloxy)phenyl]methyl}amino)carbonyl]-4-oxo-4H-thieno[2,3-d]pyrimidin-3-id-5-yl}methyl)oxy]methyl}benzoate]",91%
2,"COc1cccc(CNC(=O)c2nc3ccc(F)c(OCCc4ccc(C(=O)[O-])cc4)c3c(=O)[n-]2)c1.[Na+].[Na+] [Example 287, Disodium 4-[2-({6-fluoro-2-[({[3-(methyloxy)phenyl]methyl}amino)carbonyl]-4-oxo-4H-quinazolin-3-id-5-yl}oxy)ethyl]benzoate]",98%
3,"COc1cccc(CNC(=O)c2nc3scc(COCc4ccc(C(=O)[O-])cc4)c3c(=O)[nH]2)c1.[K+] [Example 385, Potassium 4-{[({2-[({[3-(methyloxy)phenyl]methyl}amino)carbonyl]-4-oxo-3,4-dihydrothieno[2,3-d]pyrimidin-5-yl}methyl)oxy]methyl}benzoate]",96%

# Same assay, conditions: compound 1 μM; substrate Cy3-PLGLK(Cy5Q)AR-NH2; 37° C., 40 min; 1 µM
row,SMILES,MMP-13 activity inhibitory rate (%)
1,"COc1cccc(CNC(=O)c2nc3scc(COCc4ccc(C(=O)O)cc4)c3c(=O)[nH]2)c1 [Example 386, Dipotassium 4-{[({2-[({[3-(methyloxy)phenyl]methyl}amino)carbonyl]-4-oxo-4H-thieno[2,3-d]pyrimidin-3-id-5-yl}methyl)oxy]methyl}benzoate]",94%
2,"COc1cccc(CNC(=O)c2nc3scc(COCc4ccc(C(=O)O)cc4)c3c(=O)[nH]2)c1 [Example 217, 4-{[({2-[({[3-(methyloxy)phenyl]methyl}amino)carbonyl]-4-oxo-3,4-dihydrothieno[2,3-d]pyrimidin-5-yl}methyl)oxy]methyl}benzoic acid]",100%

# Same assay, conditions: compound 1 μM; substrate Cy3-PLGLK(Cy5Q)AR-NH2; 37° C., 40 min; read-out: MMP-13 activity inhibitory rate (%)
row,inhibition at 1 µM,SMILES
1,98%,"Cc1cc(CNC(=O)c2nc3scc(COCc4ccc(C(=O)O)cc4)c3c(=O)[nH]2)ccc1F [Example 341, 4-[({[2-({[(4-fluoro-3-methylphenyl)methyl]amino}carbonyl)-4-oxo-3,4-dihydrothieno[2,3-d]pyrimidin-5-yl]methyl}oxy)methyl]benzoic acid]"
2,93%,"CCOc1cccc(CNC(=O)c2nc3scc(COCc4ccc(C(=O)O)cc4)c3c(=O)[nH]2)c1 [Example 366, 4-{[({2-[({[3-(ethyloxy)phenyl]methyl}amino)carbonyl]-4-oxo-3,4-dihydrothieno[2,3-d]pyrimidin-5-yl}methyl)oxy]methyl}benzoic acid]"
3,96%,"O=C(O)c1ccc(COCc2csc3nc(C(=O)NCc4ccc(F)c(Cl)c4)[nH]c(=O)c23)cc1 [Example 339, 4-[({[2-({[(3-chloro-4-fluorophenyl)methyl]amino}carbonyl)-4-oxo-3,4-dihydrothieno[2,3-d]pyrimidin-5-yl]methyl}oxy)methyl]benzoic acid]"

# Continued, compound first:
row,SMILES,inhibition at 1 µM
1,"COc1cccc(CNC(=O)c2nc3sccc3c(=O)[nH]2)c1 [Example 209, N-{[3-(methyloxy)phenyl]methyl}-4-oxo-3,4-dihydrothieno[2,3-d]pyrimidine-2-carboxamide]",94%
2,"COc1cccc(CNC(=O)c2nc3ccc(F)c(OCCc4ccc(C(=O)O)cc4)c3c(=O)[nH]2)c1 [Example 179, 4-[2-({6-Fluoro-2-[({[3-(methyloxy)phenyl]methyl}amino)carbonyl]-4-oxo-3,4-dihydroquinazolin-5-yl}oxy)ethyl]benzoic acid]",99%
3,"COc1cccc(CNC(=O)c2nc3ccccc3c(=O)[nH]2)c1 [Example 1, N-{[3-(methyloxy)phenyl]methyl}-4-oxo-3,4-dihydroquinazoline-2-carboxamide]",91%

# Same assay, conditions: read-out: MMP-13 activity inhibitory rate (%), compound 1 μM; substrate Cy3-PLGLK(Cy5Q)AR-NH2; 37° C., 40 min
row,SMILES,inhibition at 1 µM
1,"COc1cccc(CNC(=O)c2nc3scc(COCc4ccc(C(=O)O)cc4)c3c(=O)[nH]2)c1 [Example 383, Sodium 4-{[({2-[({[3-(methyloxy)phenyl]methyl}amino)carbonyl]-4-oxo-3,4-dihydrothieno[2,3-d]pyrimidin-5-yl}methyl)oxy]methyl}benzoate]",91%
2,"COc1cccc(CNC(=O)c2nc3ccc(F)c(OCCc4ccc(C(=O)O)cc4)c3c(=O)[nH]2)c1 [Example 286, Sodium 4-[2-({6-fluoro-2-[({[3-(methyloxy)phenyl]methyl}amino)carbonyl]-4-oxo-3,4-dihydroquinazolin-5-yl}oxy)ethyl]benzoate]",97%

# Tested on: not given
# Experiment: not given
# Details: not given
row,melting point,SMILES
1,230 to 231 °C,"COc1cccc(CNC(=O)c2nc3cnn(CCOc4ccc(C(=O)O)cc4)c3c(=O)[nH]2)c1 [Example 250, 4-[2-(5-{[(3-methoxybenzyl)amino]carbonyl}-7-oxo-6,7-dihydro-1H-pyrazolo[4,3-d]pyrimidin-1-yl)ethoxy]benzoic acid]"
2,169 to 171 °C,"CCOC(=O)Cc1csc2nc(C(=O)NCc3cccc(OC)c3)[nH]c(=O)c12 [Example 251, ethyl (2-{[(3-methoxybenzyl)amino]carbonyl}-4-oxo-3,4-dihydrothieno[2,3-d]pyrimidin-5-yl)acetate]"
3,228 to 230 °C,"COc1cccc(CNC(=O)c2nc3scc(COc4ccc(CC(=O)O)cc4)c3c(=O)[nH]2)c1 [Example 257, {4-[(2-{[(3-methoxybenzyl)amino]carbonyl}-4-oxo-3,4-dihydrothieno[2,3-d]pyrimidin-5-yl)methoxy]phenyl}acetic acid]"
4,175 to 178 °C,"CCOC(=O)Cc1ccc(OCc2csc3nc(C(=O)NCc4cccc(OC)c4)[nH]c(=O)c23)cc1 [Example 256, ethyl {4-[(2-{[(3-methoxybenzyl)amino]carbonyl}-4-oxo-3,4-dihydrothieno[2,3-d]pyrimidin-5-yl)methoxy]phenyl}acetate]"

# The next lines start with the compound.
row,SMILES,melting point
1,"COc1cccc(CNC(=O)c2nc3cnn(CCCc4ccccc4)c3c(=O)[nH]2)c1 [Example 243, N-(3-methoxybenzyl)-7-oxo-1-(3-phenylpropyl)-6,7-dihydro-1H-pyrazolo[4,3-d]pyrimidine-5-carboxamide]",138 to 140 °C
2,"COc1cccc(CNC(=O)c2nc3ccc(N)cc3c(=O)[nH]2)c1 [Example 100, 6-amino-N-{[3-(methyloxy)phenyl]methyl}-4-oxo-3,4-dihydroquinazoline-2-carboxamide]",223 to 225 °C
3,"COc1cccc(CNC(=O)c2nc3ccc(CN4CCOCC4)cc3c(=O)[nH]2)c1 [Example 116, N-{[3-(methyloxy)phenyl]methyl}-6-(morpholin-4-ylmethyl)-4-oxo-3,4-dihydroquinazoline-2-carboxamide]",126 to 129 °C
4,"COc1cccc(CNC(=O)c2nc3ccc(I)cc3c(=O)[nH]2)c1 [Example 104, 6-iodo-N-{[3-(methyloxy)phenyl]methyl}-4-oxo-3,4-dihydroquinazoline-2-carboxamide]",219 to 220 °C
5,"COc1cccc(CNC(=O)c2nc3ccc(Cl)cc3c(=O)[nH]2)c1 [Example 83, 6-chloro-N-{[3-(methyloxy)phenyl]methyl}-4-oxo-3,4-dihydroquinazoline-2-carboxamide]",203 to 206 °C
6,"COc1cc(CNC(=O)c2nc3cnn(CCCc4ccccc4)c3c(=O)[nH]2)ccc1F [Example 244, N-(4-fluoro-3-methoxybenzyl)-7-oxo-1-(3-phenylpropyl)-6,7-dihydro-1H-pyrazolo[4,3-d]pyrimidine-5-carboxamide]",155 to 157 °C
